“Also recorded” adds a separate entry of the source. Like-named read-outs stand apart in the source and are kept apart here.
Assays:
[1] = biological target: complex II (succinate:quinone reductase, SQR) (Echinococcus multilocularis, UniProt A0A1Z4EAW8+A0A1Z4EAX0+A0A1Z4EAX1); test: Succinate:quinone reductase (SQR) activity (complex II) in protoscoleces mitochondrial fraction; format: biochemical
Source text: (§1) Cyst tissues containing E. multilocularis (Nemuro strain) protoscoleces isolated from infected hispid cotton rats, Sigmodon hispidus, were used. The tissues were shredded through a metal mesh (0.5 mm diameter). Then, the tissues were repeatedly suspended and washed with physiological saline in a tall beaker to obtain protoscoleces by exploiting the buoyancy difference between protoscoleces and other tissue ([26]). The obtained protoscoleces were homogenized with a motor-driven homogenizer to prepare the mitochondrial fraction. The homogenate was diluted with mitochondrial preparation buffer (210 mM mannitol, 10 mM sucrose, 1 mM disodium EDTA, and 50 mM Tris-HCl [pH 7.5]) supplemented with 10 mM sodium malonate to 5 times the volume of the original protoscolex homogenate, and then centrifuged at 800 × g for 10 min (4°C) to remove cell debris and nuclei. The supernatant was then centrifuged at 8,000 × g for 10 min (4°C) to obtain the mitochondrial pellet. Next, the pellet was resuspended in mitochondrial preparation buffer (without malonate) and centrifuged at 8,000 × g for 10 min (4°C). The enriched mitochondrial fraction was finally suspended in approximately 0.5 to 1.0 mL of mitochondrial preparation buffer without malonate and frozen at −50°C. The mitochondrial fraction from A. suum was prepared essentially as described previously ([27], [28]).
(§2) NADH:quinone reductase activity (complex I), succinate:quinone reductase activity (complex II), and succinate:cytochrome c reductase activity (complexes II to III) were measured using a UV-3000 spectrophotometer (Shimadzu, Kyoto, Japan) as described previously ([4], [6]). Briefly, all enzyme assays using mitochondrial fractions were performed in 0.5- or 1.0-mL reaction mixtures at 25°C. A freeze/thaw process was performed before the assay to ensure that the mitochondrial membrane was permeable to the solutes. The final mitochondrial protein concentration was 50 μg/mL. NADH:quinone reductase activity was measured in 50 mM potassium phosphate buffer (pH 7.4) containing 2 mM potassium cyanide, KCN (Sigma, St. Louis, MO, USA), and 60 μM decylubiquinone (Sigma). The activity assay was started by the addition of 50 μM NADH (Fujifilm-Wako, Tokyo, Japan) and recorded as the rate of NADH consumption as monitored at 340 nm (ε = 6.2 mM^−1 cm^−1). The reagents used in the SQR activity assay were mixed with the reaction buffer containing 50 mM potassium phosphate (pH 7.4) and 0.1% (wt/vol) sucrose monolaurate (DOJINDO, Kumamoto, Japan). SQR activity was determined by monitoring the change in absorbance of quinone at 278 nm (ε = 15 mM^−1 cm^−1) in the presence of 60 μM decylubiquinone, 2 mM KCN, and the inhibitor. The reaction was initiated by the addition of 10 mM disodium succinate to the mixture. NADH:cytochrome c activity (complex I to III) was measured in the reaction buffer (30 mM potassium phosphate, 1 mM MgCl2, pH 7.5) containing 2 mM KCN, 50 μM cytochrome c (Nacalai Tesque, Kyoto, Japan), and the inhibitor. The assay was performed after the addition of 100 mM malonate to block complex II activity. The reaction was started by adding 50 μM NADH to the mixture, and the enzyme activity was determined by monitoring the change in absorbance of cytochrome c at 550 nm (ε = 19 mM^−1 cm^−1). IC50 values of AF and its derivatives against the specific activities of mitochondrial respiratory enzymes in protoscoleces were determined. The IC50 of each compound was determined by calculating approximation lines from three or more points on either side of the IC50 concentration.

[2] = biological target: complex I (NADH:quinone reductase) (Echinococcus multilocularis, UniProt A0A068Y553+A0A068Y9L9+Q9TE76); test: NADH:quinone reductase activity (complex I) in protoscoleces mitochondrial fraction; format: biochemical; conditions: for IC50: E. multilocularis protoscoleces mitochondria, read-out: IC50 NADH:decyl rhodoquinone reductase (complex I)
Source text: as §1
as §2, with “Louis, MO, USA), and 60 μM decylubiquinone (Sigma).” left out, “SQR activity was determined by monitoring the change in absorbance of quinone at 278 nm (ε = 15 mM^−1 cm^−1) in the presence of 60 μM decylubiquinone, 2 mM KCN, and the inhibitor.” left out

[3] = biological target: complex I and III (NADH:cytochrome c reductase) (Echinococcus multilocularis, UniProt Q9TE80); test: NADH:cytochrome c reductase activity (complex I to III) in protoscoleces mitochondrial fraction; format: biochemical
Source text: as §1, §2

[4] = tested on: E. multilocularis protoscoleces; test: Ex vivo culture assay of live protoscoleces, viability by trypan blue exclusion; format: cell-based, Echinococcus multilocularis; conditions: 50 μM; for antiparasitic effect on protoscoleces in culture assay: both anaerobic and aerobic conditions
Experimental: FIG 5 Viability of E. multilocularis protoscoleces in ex vivo culture assay. The E. multilocularis protoscoleces were treated with ascofuranone (AF) and its derivatives in culture under aerobic and anaerobic conditions (O2 <0.3%). Each compound was added to the culture medium at a final concentration of 50 μM. The control group was supplemented with 0.5% (vol/vol) dimethyl sulfoxide (DMSO). Atovaquone (ATV) was used as positive control and to ensure anaerobic conditions in the culture. The viability of protoscoleces was evaluated by their ability to exclude trypan blue. The data are presented as the mean ± standard deviation (n = 3).
The obtained protoscoleces were cultured in Connaught Medical Research Laboratories 1066 medium (Gibco, Grand Island, NY, USA) containing 0.5% (wt/vol) yeast extract (Difco Laboratories, Detroit, MI, USA), 2 mM L-glutamine (Gibco), 23 mM 4-(2-hydroxyethyl)-1-piperazineethanesulfonic acid, 0.5% (wt/vol) D (+)-glucose, 0.4 mM sodium taurocholate (Wako Pure Chemical Industries, Osaka, Japan), 57 mM sodium hydrogen carbonate, and 100 U/mL penicillin-streptomycin (Gibco). The protoscoleces were observed daily for seven consecutive days, and half of the medium was replaced on day 3. For anaerobic cultures, six-well plates were sealed in plastic containers with oxygen-detecting agents and oxygen scavengers (Aneromeito, Nissui Pharmaceutical, Tokyo, Japan) to keep the oxygen concentration below 0.3% at 37°C. The protoscoleces were treated with AF and its derivatives at a final concentration of 50 μM in the culture medium, and the duration of parasite elimination was investigated. The control group was supplemented with 0.5% (vol/vol) dimethyl sulfoxide (DMSO), and all conditions were assayed in triplicate. We used ATV in a culture assay as positive control and to ensure anaerobic conditions in the culture ([4], [5]). […] The viability of protoscoleces was determined after microscopic observation of more than 170 protoscoleces per well using the trypan blue exclusion test, as described previously ([4], [6], [33]).

[5] = IC50, E. multilocularis SQR inhibition, Table 5, furanone ring-substituted derivatives, mean ± SEM
[6] = IC50 against E. multilocularis complex II (SQR), figure legends, supplement
[7] = IC50, inhibition of E. multilocularis SQR, Table 2, substitutions on the benzene group, mean ± SEM
[8] = IC50 against E. multilocularis SQR, Table 3, various side chain lengths, mean ± SEM
[9] = IC50, inhibition of E. multilocularis SQR, Table 4, different linker structures, mean ± SEM
[10] = IC50 Succinate:quinone reductase (SQR) (complex II), E. multilocularis protoscoleces mitochondria, mean ± SEM, Table 1
[11] = E. multilocularis protoscoleces mitochondria; mean ± SEM; Table 1; read-out: IC50 NADH:cytochrome c reductase (complex I and III)

complex II (succinate:quinone reductase, SQR), sequence (A0A1Z4EAV8 entry or part of it): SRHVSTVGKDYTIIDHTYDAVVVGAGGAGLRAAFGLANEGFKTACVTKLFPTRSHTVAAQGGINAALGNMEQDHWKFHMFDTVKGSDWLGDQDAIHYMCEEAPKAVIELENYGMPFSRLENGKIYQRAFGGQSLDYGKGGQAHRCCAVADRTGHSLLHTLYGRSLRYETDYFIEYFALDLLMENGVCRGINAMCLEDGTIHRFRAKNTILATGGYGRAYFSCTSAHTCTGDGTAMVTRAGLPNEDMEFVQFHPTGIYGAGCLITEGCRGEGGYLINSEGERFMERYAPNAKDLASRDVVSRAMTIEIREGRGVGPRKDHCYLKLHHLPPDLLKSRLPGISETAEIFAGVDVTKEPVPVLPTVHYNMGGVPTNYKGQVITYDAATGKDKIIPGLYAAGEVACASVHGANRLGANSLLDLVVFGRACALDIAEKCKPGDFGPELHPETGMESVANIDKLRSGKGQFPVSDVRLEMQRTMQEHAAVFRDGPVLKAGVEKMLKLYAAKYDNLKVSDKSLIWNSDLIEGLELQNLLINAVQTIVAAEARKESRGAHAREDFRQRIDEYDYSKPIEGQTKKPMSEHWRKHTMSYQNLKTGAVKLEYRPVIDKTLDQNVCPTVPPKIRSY
complex II (succinate:quinone reductase, SQR), sequence (A0A1Z4EAX1 entry or part of it): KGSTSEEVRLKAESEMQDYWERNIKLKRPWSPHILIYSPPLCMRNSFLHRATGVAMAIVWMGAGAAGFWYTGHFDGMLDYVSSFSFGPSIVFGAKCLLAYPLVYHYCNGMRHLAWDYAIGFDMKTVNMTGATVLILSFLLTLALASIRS
complex II (succinate:quinone reductase, SQR), sequence (A0A1Z4EAX0 entry or part of it): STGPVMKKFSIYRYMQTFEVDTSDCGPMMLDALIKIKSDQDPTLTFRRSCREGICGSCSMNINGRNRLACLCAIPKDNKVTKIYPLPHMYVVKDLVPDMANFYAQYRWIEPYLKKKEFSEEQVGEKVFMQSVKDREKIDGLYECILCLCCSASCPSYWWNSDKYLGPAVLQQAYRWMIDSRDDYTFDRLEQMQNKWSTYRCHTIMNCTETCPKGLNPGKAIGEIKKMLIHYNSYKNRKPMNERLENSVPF
complex II (succinate:quinone reductase, SQR), sequence (A0A1Z4EAW8 entry or part of it): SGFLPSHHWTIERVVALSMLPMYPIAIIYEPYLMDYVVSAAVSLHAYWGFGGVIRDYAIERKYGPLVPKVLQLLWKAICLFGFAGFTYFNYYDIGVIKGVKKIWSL
complex I and III (NADH:cytochrome c reductase), sequence (Q9TE80 entry or part of it): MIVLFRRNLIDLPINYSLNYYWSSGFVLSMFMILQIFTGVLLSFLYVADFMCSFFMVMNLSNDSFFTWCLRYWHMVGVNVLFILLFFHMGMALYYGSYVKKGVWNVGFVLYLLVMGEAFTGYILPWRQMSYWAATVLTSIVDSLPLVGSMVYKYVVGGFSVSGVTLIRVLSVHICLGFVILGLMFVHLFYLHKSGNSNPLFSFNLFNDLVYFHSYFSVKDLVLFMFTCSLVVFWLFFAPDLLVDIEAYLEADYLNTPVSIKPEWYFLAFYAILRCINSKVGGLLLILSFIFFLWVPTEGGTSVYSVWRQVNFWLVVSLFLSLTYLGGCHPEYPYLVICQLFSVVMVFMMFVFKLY
complex I and III (NADH:cytochrome c reductase), sequence (Q9GP40 whole entry, further chain): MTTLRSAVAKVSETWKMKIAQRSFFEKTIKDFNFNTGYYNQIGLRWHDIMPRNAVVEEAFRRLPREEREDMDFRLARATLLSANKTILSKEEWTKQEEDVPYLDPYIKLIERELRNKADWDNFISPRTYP
complex I and III (NADH:cytochrome c reductase), sequence (Q9TE76 entry or part of it, further chain): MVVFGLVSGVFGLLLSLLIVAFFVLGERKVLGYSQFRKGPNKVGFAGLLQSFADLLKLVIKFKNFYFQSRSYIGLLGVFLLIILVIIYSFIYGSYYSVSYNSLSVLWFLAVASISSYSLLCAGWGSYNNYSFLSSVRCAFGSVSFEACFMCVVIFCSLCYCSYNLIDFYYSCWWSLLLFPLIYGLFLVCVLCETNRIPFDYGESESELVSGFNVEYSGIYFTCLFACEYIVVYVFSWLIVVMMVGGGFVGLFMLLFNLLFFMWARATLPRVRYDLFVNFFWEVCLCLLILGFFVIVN

SMILES: C#CCOC/C(C)=C/CC/C(C)=C/Cc1c(O)c(Cl)c(C)c(C=O)c1O [Compound D16]
- IC50 [1, 5]: 258 ± 72 nM
- IC50 [1, 6]: 250 nM

SMILES: C/C(=C\Cc1c(O)c(Cl)c(C)c(C=O)c1O)CC/C=C(\C)C(C)O (stereo not drawn) [Compound D18]
- IC50 ([1]; read-out: IC50, E. multilocularis SQR inhibition, Table 5, furanone ring-substituted derivatives, mean ± SEM): 3770 ± 980 nM

SMILES: COc1c(Cl)c(C)c(C=O)c(O)c1C/C=C(\C)CC/C=C(\C)C1CC(=O)C(C)(C)O1 (stereo not drawn) [Compound D11]
- SQR inhibitory activity ([1]; 4-OH changed to methoxy): inhibitory activity was lost
- IC50 [1, 7]: > 10000 nM

SMILES: Cc1c(Cl)c(O)cc(O)c1C=O [Compound C0]
- IC50 [1, 8]: > 20000 nM

SMILES: CC(=O)c1c(C)c(Cl)c(O)c(C/C=C(\C)CCC=C(C)C)c1O [Compound D6]
- IC50 [1, 7]: 210 ± 22 nM

SMILES: CCCCCCCCc1c(O)c(Cl)c(C)c(C=O)c1O [Compound D15]
- IC50 [1, 9]: 890 ± 110 nM

SMILES: CC(C)=CCC/C(C)=C/CC/C(C)=C/Cc1c(O)c(Cl)c(C)c(C=O)c1O [Compound D2]
- IC50 [2]: > 50 µM
- IC50 [1, 5]: 309 ± 21 nM
- IC50 [1, 10]: 309 ± 21 nM
- IC50 [1, 6]: 300 nM
- IC50 [3, 11]: 8 ± 2 nM
- selectivity complex III over complex II (aerobic vs anaerobic) ([3]; IC50 complex II 0.309 μM vs complex III 0.008 μM): 38 fold
- day of complete elimination of protoscoleces ([4]; aerobic culture): ≤ 4 days
- day of complete elimination of protoscoleces ([4]; anaerobic culture (O2 <0.3%)): 6 days
- antiparasitic effect on protoscoleces in culture assay [4]: strong antiparasitic effect

SMILES: CC(=O)c1c(C)c(Cl)c(O)c(C/C=C(\C)CC/C=C(\C)CCC=C(C)C)c1O [Compound D3]
- IC50 [2]: > 50 µM
- IC50 [1, 10]: 135 ± 14 nM
- IC50 [3, 11]: 14 ± 2 nM

SMILES: CCCCCCC/C=C/c1c(O)c(Cl)c(C)c(C=O)c1O [Compound C9]
- IC50 [1, 8]: 1200 ± 120 nM

SMILES: C/C(=C\Cc1c(O)c(Cl)cc(C=O)c1O)CC/C=C(\C)C1CC(=O)C(C)(C)O1 (stereo not drawn) [Compound D10]
- IC50 [1, 7]: 550 ± 130 nM

SMILES: CC(C)=CCC/C(C)=C/Cc1c(O)c(Cl)c(C)c(C=O)c1O [Compound D7]
- increase of SQR IC50 compared to D6 ([1]; 1-aldehyde (D7) vs 1-acetyl (D6)): 2 fold

SMILES: CC(C)=CCC/C(C)=C/Cc1c(O)cc(C)c(C=O)c1O [Compound D8]
- IC50 [1, 7]: > 10000 nM

SMILES: Cc1c(Cl)c(O)c(CCC(C)CCCC(C)C)c(O)c1C=O (stereo not drawn) [Compound D13]
- IC50 [1, 9]: 280 ± 50 nM

SMILES: CC(=O)c1cc(Cl)c(O)c(C/C=C(\C)CC/C=C(\C)CCC=C(C)C)c1O [Compound D4]
- IC50 [2]: > 50 µM
- IC50 [1, 10]: 37 ± 8 nM
- IC50 [3, 11]: 109 ± 9 nM
- elimination of protoscoleces on day 7 ([4]; aerobic culture, day 7): 34%
- elimination of protoscoleces by day 7 ([4]; anaerobic culture (O2 <0.3%), day 7): 65%
- antiparasitic effect on protoscoleces in culture assay [4]: weak

SMILES: CCCCCCCCCC/C=C/c1c(O)c(Cl)c(C)c(C=O)c1O [Compound C12]
- IC50 [1, 8]: 1700 ± 720 nM

SMILES: C/C(=C\Cc1c(O)c(Cl)c(C)c(C=O)c1O)CC/C=C(\C)[C@@H]1CC(=O)C(C)(C)O1 [AF, Ascofuranone]
- inhibition of NADH:ubiquinone reductase activity of complex I [2]: not inhibited
- IC50 [2]: > 50 µM
- IC50 [1, 5]: 1100 ± 210 nM
- IC50 [1, 7]: 1100 ± 210 nM
- IC50 [1, 10]: 1100 ± 210 nM
- IC50 ([3]; read-out: IC50 NADH:cytochrome c reductase (complex I and III); E. multilocularis protoscoleces mitochondria; mean ± SEM; Table 1): 57 ± 11 nM
- viability of protoscoleces during treatment ([4]; aerobic culture): progressively reduced
- viability / killing of protoscoleces during treatment ([4]; anaerobic culture (O2 <0.3%)): progressively reduced; also recorded: strong killing effect
- antiparasitic effect on protoscoleces in culture assay [4]: strong antiparasitic effect

SMILES: CCC/C=C/c1c(O)c(Cl)c(C)c(C=O)c1O [Compound C5]
- IC50 [1, 8]: 3300 ± 270 nM

SMILES: CCCCCC(C)CCc1c(O)c(Cl)c(C)c(C=O)c1O (stereo not drawn) [Compound D14]
- IC50 [1, 9]: 540 nM

SMILES: C/C=C/c1c(O)c(Cl)c(C)c(C=O)c1O [Compound C3]
- IC50 [1, 8]: 5400 ± 700 nM

SMILES: CC(C)=CCC/C(C)=C/Cc1c(O)c(Cl)c(C)c(C=O)c1O [Compound D12]
- IC50 [1, 9]: 570 ± 30 nM

SMILES: COC(=O)c1c(C)c(Cl)c(O)c(C/C=C(\C)CCC=C(C)C)c1O [Compound D9]
- IC50 [1, 7]: > 10000 nM

SMILES: C/C(=C\Cc1c(O)c(Cl)c(C)c(C=O)c1O)CC/C=C(\C)COC(=O)C(C)(C)C [Compound D17]
- IC50 [1, 5]: 488 ± 15 nM
- IC50 [1, 6]: 480 nM

SMILES: CCCCCCCC/C=C/c1c(O)c(Cl)c(C)c(C=O)c1O [Compound C10]
- IC50 [1, 8]: 1200 ± 80 nM

SMILES: C/C(=C\CC/C(C)=C/Cc1c(O)c(Cl)c(C)c(C=O)c1O)CO [Compound D19]
- IC50 [1, 5]: > 10000 nM

SMILES: CCCCC/C=C/c1c(O)c(Cl)c(C)c(C=O)c1O [Compound C7]
- IC50 [1, 8]: 950 ± 270 nM

SMILES: CC(C)=CCC/C(C)=C/CC/C(C)=C/Cc1c(O)c(Cl)cc(C=O)c1O [Compound D1]
- IC50 [2]: > 50 µM
- IC50 [1, 10]: 88 ± 13 nM
- IC50 [3, 11]: 274 ± 25 nM
